Bounds are passed on as bounds.

Data set [1] is described as follows: Inhibition of Th17 cell differentiation in mouse CD4-positive T cells incubated for 3 days by ELISA method. The settings on record: Th17, 72 h, read-out: pIC50 (converted).
Data set [2] is described as follows: AUC (0 to 4 hrs) in C57BL/6 mouse brain at 2 mg/kg, ip by LC/MS/MS method. The class given is ADME, organism-based. On the set-up: time < 4 hr, dose 2 mg/kg, route intraperitoneal.
The nature of data set [3]: AUC (0 to 4 hrs) in C57BL/6 mouse blood at 2 mg/kg, ip by LC/MS/MS method. The class given is ADME, organism-based. Further details: time < 4 hr, dose 2 mg/kg, route intraperitoneal.
The target in data set [4] is T1, Nuclear receptor ROR-gamma (Homo sapiens, UniProt P51449).
T1 sequence (P51449 whole entry): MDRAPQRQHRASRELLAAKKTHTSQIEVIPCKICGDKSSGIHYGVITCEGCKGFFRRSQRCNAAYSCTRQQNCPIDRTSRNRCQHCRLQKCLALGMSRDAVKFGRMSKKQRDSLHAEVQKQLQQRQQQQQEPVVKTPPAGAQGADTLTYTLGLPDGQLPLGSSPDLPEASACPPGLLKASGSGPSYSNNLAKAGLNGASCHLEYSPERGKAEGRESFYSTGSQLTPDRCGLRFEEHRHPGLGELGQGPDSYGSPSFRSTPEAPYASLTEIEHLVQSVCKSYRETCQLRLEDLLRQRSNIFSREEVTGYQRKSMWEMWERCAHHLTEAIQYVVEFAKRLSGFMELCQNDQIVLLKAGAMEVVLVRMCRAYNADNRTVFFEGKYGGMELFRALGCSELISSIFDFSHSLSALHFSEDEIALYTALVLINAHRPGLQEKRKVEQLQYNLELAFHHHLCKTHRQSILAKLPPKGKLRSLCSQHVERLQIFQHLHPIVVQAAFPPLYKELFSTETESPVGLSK
Briefly: Inhibition of RORgammat (unknown origin) assessed as inhibition of agonist-induced response by FRET assay.

Data set [5] is filed under the species Mus musculus. The following applies: C57BL/6 (B6), 1 to 10 mg/kg.
Description: Inhibition of disease severity in C57BL/6 (B6) mouse model of experimental autoimmune encephalomyelitis at 1 to 10 mg/kg, po qd dosed starting from day of immunization
Data set [6] relates to Mus musculus. Briefly: Dose normalized AUC (0 to infinity) in C57BL/6 mouse at 10 mg/kg, po by LC/MS/MS method. The following applies: in vivo. The data set is classed as ADME, organism-based.
Data set [7] can be described thus: Half life in C57BL/6 mouse at 1 mg/kg, ip by LC/MS/MS method. The data set is classed as ADME, organism-based. The settings on record: in vivo.
Data set [8] is described as follows: Oral bioavailability in C57BL/6 mouse at 2 mg/kg by LC/MS/MS method. The class given is ADME, organism-based. The settings on record: in vivo.
The subject of data set [9] is Mus musculus. Briefly: Volume of distribution at steady state in C57BL/6 mouse at 1 mg/kg, ip by LC/MS/MS method. The settings on record: in vivo. The class given is ADME, organism-based.
Data set [10] deals with Mus musculus. Briefly: Dose normalized AUC (0 to infinity) in C57BL/6 mouse at 2 mg/kg, po by LC/MS/MS method. The class given is ADME, organism-based. The following applies: in vivo.
Data set [11] is described as follows: Cmax in C57BL/6 mouse at 2 mg/kg, po by LC/MS/MS method. The following applies: in vivo. The data set is classed as ADME, organism-based. Further details: dose 2 mg/kg, route oral.
A short description of data set [12]: Blood clearance in C57BL/6 mouse at 1 mg/kg, ip by LC/MS/MS method. The class given is ADME, organism-based.
Data set [13] in a line: Ratio of AUC (0 to 4 hrs) in brain to blood of C57BL/6 mouse at 2 mg/kg, ip by LC/MS/MS method. The class given is ADME, organism-based.

Regarding `CCS(=O)(=O)c1ccc(CC(=O)Nc2ccc(-c3ccccc3OC(F)(F)F)c(-c3cncnc3)c2)cc1`, the IC50 in data set [1] was less than 31.6 nM.
For the compound `CCS(=O)(=O)c1ccc(CC(=O)Nc2ccc(-c3ccccc3OC(C)C)c(Cl)c2)cc1`, in data set [1], the IC50 was 79.4 nM.
Take `NS(=O)(=O)c1ccc(CC(=O)Nc2cc(Cl)c(-c3ccccc3OC(F)(F)F)c(Cl)c2)cc1`: the AUC(0-t) (usually the area under the concentration-time curve up to a stated or last time point) at 4 h in data set [2] was 388 ng·h/mL; in data set [3], 4880 ng·h/mL. Further, in [1], the IC50 was 7.94 nM.
As for `CCS(=O)(=O)c1ccc(CC(=O)Nc2cccc(-c3cc(Cl)ccc3Cl)n2)cc1`, the IC50 in data set [4] is more than 25100 nM.
Take `CS(=O)(=O)c1ccc(CC(=O)Nc2ccc(-c3ccc(Cl)cc3OC(F)(F)F)c(F)c2)cc1`: the AUC(0-t) at 4 h in data set [2] is 2350 ng·h/mL; in data set [3], 2020 ng·h/mL. Also, in [1], the IC50 was 50.1 nM.
Consider `CCS(=O)(=O)c1ccc(CC(=O)Nc2ccc(-c3ccccc3)cc2)cc1`, for which, in data set [1], the IC50 is more than 10000 nM.
Same read-out and setting: next, `CCS(=O)(=O)c1ccc(CC(=O)Nc2ccc(-c3ccccc3)c(Cl)c2)cc1`: 6310 nM.
With `CCS(=O)(=O)c1ccc(CC(=O)Nc2cc(Cl)c(-c3ccccc3OC(F)F)c(Cl)c2)cc1`, the AUC(0-t) at 4 h in data set [2] stood at 462 ng·h/mL; in data set [3], 1180 ng·h/mL. Also, the IC50 in data set [1] is 10 nM.
Regarding `CCS(=O)(=O)c1ccc(CC(=O)Nc2ccc(-c3ccccc3OC(F)(F)F)c(C(C)=O)c2)cc1`, the IC50 in data set [1] was 2510 nM.
In the case of `CCS(=O)(=O)c1ccc(CC(=O)Nc2cc(Cl)c(-c3ccccc3OC(F)(F)F)c(C#N)c2)cc1`, the IC50 in [1] was 31.6 nM.
In the case of `CCS(=O)(=O)c1ccc(CC(=O)Nc2cc(Cl)c(-c3ccccc3OC(F)(F)F)c(Cl)c2)cc1`, the AUC(0-t) at 4 h in data set [2] stood at 946 ng·h/mL; in [3], 1220 ng·h/mL.
Turning to `CCS(=O)(=O)c1ccc(CC(=O)Nc2ccc(-c3ncccc3C(F)(F)F)c(Cl)c2)cc1`, the IC50 in [1] was more than 5010 nM.
`CCS(=O)(=O)c1ccc(CC(=O)Nc2ccc(-c3cccn3C)c(Cl)c2)cc1`: the IC50 in [1] is more than 6310 nM.
Regarding `Cc1cc(NC(=O)Cc2ccc(S(C)(=O)=O)cc2)ccc1-c1ccc(Cl)cc1OC(F)(F)F`, the inhibition entry in the data set filed under Mus musculus [5] is “Dose-dependent effect”. Besides, the AUC(0-t) at 4 h is 3520 ng·h/mL in [2] and 2400 ng·h/mL in data set [3]. In addition, the IC50 in data set [1] was 63.1 nM. For the same compound, the AUC/dose in the data set with Mus musculus [6] is 4048 ng·h/mL/mg/kg.
As to `CCS(=O)(=O)c1ccc(CC(=O)Nc2ccc(-c3ccccc3OC(F)(F)F)c(C)c2)cc1`, in data set [1], the IC50 was 25.1 nM.
For the compound `CCS(=O)(=O)c1ccc(CC(=O)Nc2ccc(-c3ccccc3OC(F)(F)F)cc2)cc1`, the IC50 in data set [1] was 158 nM.
For the compound `CCS(=O)(=O)c1ccc(CC(=O)Nc2ccc(-c3ccccc3C(F)(F)F)c(Cl)c2)cc1`, the half-life – broadly, the time in which the quantity being followed falls by half – in data set [7] is 2.2 h. For the same compound, the bioavailability in data set [8] worked out at 75%. For the same compound, in data set [1], the IC50 was 200 nM. Also, the Vdss in the data set with Mus musculus [9] is 3.2 L/kg. Moreover, the AUC/dose in the data set with Mus musculus [10] is 713 ng·h/mL/mg/kg. In addition, the concentration in data set [11] peaked (Cmax) at 211 ng/mL. Further, the CL/F (commonly the apparent clearance, not corrected for the fraction that reaches the circulation) in data set [12] was 17.6 mL/min/kg.
The compound `CCS(=O)(=O)c1ccc(CC(=O)Nc2ccc(-c3ccccc3OC(F)(F)F)c(Cl)c2)cc1` had a half-life in data set [7] of 4.2 h. The bioavailability in data set [8] was 102%. Besides, the IC50 in [1] is 79.4 nM. Further, the Vdss in the data set on Mus musculus [9] worked out at 3.8 L/kg. Besides, the AUC/dose in the data set on Mus musculus [10] worked out at 1313 ng·h/mL/mg/kg. Besides, the highest level in [11] (Cmax) was 203 ng/mL. Moreover, in data set [12], the CL/F came to 11.6 mL/min/kg.
`CCS(=O)(=O)c1ccc(CC(=O)Nc2ccc(-c3ccccc3OC(F)(F)F)nc2)cc1`: in data set [1], the IC50 was 7940 nM.
On the same count and under the same terms, next, `CCS(=O)(=O)c1ccc(CC(=O)Nc2ccc(-c3ccccc3OC(F)(F)F)c(C(=O)O)c2)cc1`: more than 10000 nM.
As for `CCS(=O)(=O)c1ccc(CC(=O)Nc2nc(-c3cc(Cl)ccc3Cl)cs2)cc1`, in data set [13], the Kp – broadly, tissue or fluid exposure divided by exposure in the circulation – was 1.5.
As for `CCS(=O)(=O)c1ccc(CC(=O)Nc2ccc(-c3ccccc3OC(F)(F)F)c(C(F)(F)F)c2)cc1`, the IC50 in data set [1] is 126 nM.
For the compound `CCS(=O)(=O)c1ccc(CC(=O)Nc2cc(Cl)c(-c3ccccc3C#N)c(Cl)c2)cc1`, the AUC(0-t) at 4 h in [2] is 200 ng·h/mL; in data set [3] it was 1930 ng·h/mL. Further, in data set [1], the IC50 was 79.4 nM.
As for `CCS(=O)(=O)c1ccc(CC(=O)Nc2cc(C)c(-c3ccccc3OC(F)(F)F)c(Cl)c2)cc1`, the IC50 in [1] was less than 3.16 nM.
In the case of `CCS(=O)(=O)c1ccc(CC(=O)Nc2ncc(-c3cc(Cl)ccc3Cl)s2)cc1`, the IC50 in [4] was more than 25100 nM.
Consider `CCS(=O)(=O)c1ccc(CC(=O)Nc2nnc(-c3cc(Cl)ccc3Cl)s2)cc1`, for which, in data set [4], the IC50 is more than 25100 nM.
Take `CS(=O)(=O)c1ccc(CC(=O)Nc2cc(Cl)c(-c3ccccc3OC(F)(F)F)c(Cl)c2)cc1`: in data set [7], the half-life is 9.7 h. Besides, the bioavailability in [8] was 100%. The AUC(0-t) at 4 h turned out to be 658 ng·h/mL in data set [2] and 835 ng·h/mL in data set [3]. Also, the Vdss in the data set on Mus musculus [9] was 4.4 L/kg. In the data set with Mus musculus [10], this compound yielded an AUC/dose of 2465 ng·h/mL/mg/kg. In addition, the Cmax – broadly, the highest concentration seen after dosing – in [11] was determined as 214 ng/mL. The CL/F in data set [12] turned out to be 5.5 mL/min/kg.
As to `CCS(=O)(=O)c1ccc(CC(=O)Nc2ccc(-c3ccccc3CN(C)C)c(Cl)c2)cc1`, the IC50 in data set [1] was more than 10000 nM.
Consider `CCS(=O)(=O)c1ccc(CC(=O)Nc2ccc(-c3ccc(Cl)cc3OC(F)(F)F)c(Cl)c2)cc1`, for which the AUC(0-t) at 4 h in data set [2] is 1760 ng·h/mL; in [3] it was 881 ng·h/mL. Besides, in [1], the IC50 was 7.94 nM.
As for `CCS(=O)(=O)c1ccc(CC(=O)Nc2ccc(-c3ccccc3Cl)c(Cl)c2)cc1`, the IC50 in data set [1] is 1000 nM.
In the case of `CCS(=O)(=O)c1ccc(CC(=O)Nc2cc(Cl)c(-c3ccc(F)cc3C#N)c(Cl)c2)cc1`, the results for the AUC(0-t) at 4 h in [2] and in data set [3] were 76 ng·h/mL and 1380 ng·h/mL, respectively. In addition, the IC50 in data set [1] is 158 nM.
For `CCS(=O)(=O)c1ccc(CC(=O)Nc2ccc(-c3ccccc3OC(F)(F)F)c(-c3ccno3)c2)cc1`, the IC50 in [1] was 63.1 nM.
Turning to `CS(=O)(=O)c1ccc(CC(=O)Nc2ccc(-c3ccc(Cl)cc3OC(F)(F)F)c(Cl)c2)cc1`, the AUC(0-t) at 4 h in data set [2] turned out to be 1700 ng·h/mL; in data set [3], 1730 ng·h/mL. The IC50 in data set [1] was 25.1 nM.

(Values after ChEMBL document CHEMBL3608273, “Discovery of Biaryl Amides as Potent, Orally Bioavailable, and CNS Penetrant RORγt Inhibitors” (ACS Med Chem Lett, 2015).)
